In US12358901B2, “KV3 modulators” (priority 2018, dated 2025):

How the values were obtained:
[1] = Determination of brain tissue binding (equilibrium dialysis); assay type: in vitro ADME; conditions: Sprague Dawley, rat whole brain homogenate, 5 h at 37° C.
Description: Sprague Dawley rat whole blood, collected on the week of the experiment using K3-EDTA as an anti-coagulant, is diluted with isotonic phosphate buffer 1:1 (v/v). Sprague Dawley rat whole brain, stored frozen at −20° C., is thawed and homogenised in artificial cerebrospinal fluid (CSF) 1:2 (w/v).
An appropriate amount of test compound is dissolved in DMSO to give a 10 millimolar solution. Further dilutions, to obtain a 166.7 micromolar working solution are then prepared using 50% acetonitrile in MilliQ water. This working solution is used to spike the blood to obtain a final concentration of 0.5 micromolar in whole blood. Similarly, the working solution is used to spike brain samples to obtain a final concentration of 5 micromolar in whole brain. From these spiked blood and brain preparations, control samples (n=3), are immediately extracted and used to calculate the initial recovery of the test items.
150 microL of compound-free buffer (isotonic phosphate buffer for blood or artificial CSF buffer for brain) is dispensed in one half-well and 150 microL of spiked matrix (blood or brain) is loaded in the other half-well, with the two halves separated by a semi-permeable membrane. After an equilibration period of 5 h at 37° C., 50 microL of dialysed matrix (blood or brain) is added to 50 microL of corresponding compound-free buffer, and vice-versa for buffer, such that the volume of buffer to matrix (blood or brain) remains the same. Samples are then extracted by protein precipitation with 300 microL of acetonitrile containing rolipram (control for positive ionization mode) or diclofenac (control for negative ionization mode) as internal standards and centrifuged for 10 min at 3000 rpm. Supernatants are collected (100 microL), diluted with 27% AcN in MilliQ water (200 microL) and then injected into an HPLC-MS/MS or UPLC-MS/MS system to determine the concentration of test compound present.
Blood and brain tissue binding are then determined using the following formulas: Afu=Buffer/Blood or Afu=CSF/Brain
Where Afu=apparent fraction unbound; Buffer=analyte/internal standard ratio determined in the buffer compartment; Blood=analyte/internal standard ratio determined in the blood compartment; Brain=analyte/internal standard ratio determined in the brain compartment.
[formula] where: fucr=Fraction unbound corrected; D=matrix dilution factor (D=2 for blood and D=3 for brain).
Then: % Binding=(1−fucr)×100 % Unbound=100−% Bound Brain/Blood Partition Ratio (Kbb) Determination

[2] = In vitro metabolic stability study in human hepatocytes; assay type: in vitro ADME; conditions: for In vitro CLint / Rate constant k: 0.5 uM, human cryopreserved hepatocytes, 37° C.; for Rate constant k: up to 180 min; for clearance in human hepatocytes (in words): compared to pyridine comparator compounds RE11 and RE13
Description: The objective of this study was to determine metabolic stability in mixed gender human cryopreserved hepatocytes. Testosterone and 7-Hydroxycoumarin were used as positive controls for Phase I and Phase II metabolism, respectively.
Incubation medium was prepared by combining William's medium E, HEPES buffer 1 M and L-glutamine 200 mM in the following proportions: 88%, 10% and 2%, respectively (440 mL, 50 mL and 10 mL, respectively). The medium obtained was bubbled with carbogen (5% CO2, 95% O2) for 30 minutes prior to use. Cryopreserved hepatocytes were thawed and suspended in incubation medium pre-warmed at 37° C. Cells were centrifuged, re-suspended in medium and counted by means of a haemocytometer (Burker's chamber). Cell viability was measured using the Trypan Blue exclusion test.
Test compounds were separately dissolved in DMF to obtain 50 mM stock solutions that were further diluted in water/acetonitrile 50/50 (v/v) to obtain the corresponding 50 uM working solutions. Testosterone and 7-Hydroxy-Coumarin were dissolved in DMF in order to obtain a 50 mM Testosterone solution and 5 mM 7-Hydroxy-Coumarin solution. These solutions were then diluted in the incubation medium in order to obtain a 1 mM Testosterone working solution and a 500 uM 7-Hydroxy-Coumarin working solution.
10 μL of each working solution, i.e. 50 uM test compound, 1 mM Testosterone and 500 uM of 7-Hydroxy-Coumarin were added to 990 μL of 0.5×10^6 cell suspensions in order to obtain the final concentrations of 0.5 uM, 10 uM and 5 uM, respectively. The concentration of the organic solvent in each incubation was constant and <1% (v/v).
Test compounds were separately incubated at 0.5 uM for 0, 5, 10, 15, 20, 30, 45, 60, 90, 120, 150 and 180 min (12 time points) with mixed gender human cryopreserved hepatocytes at 37° C. in a 24 well plate. At each time point a robotic handling processor aspirated 50 μL of incubation mixture from each well and dispensed it into a refrigerated 96 well plate, containing 100 μL of acetonitrile with the corresponding internal standard 150 ng/mL to stop the reaction. Then an aliquot of water (120 uL) was added to equilibrate the organic solvent content at 37%. Samples were centrifuged (ca. 3500 g for 10 minutes) prior to LC MS/MS analysis.
Metabolic stability was calculated from the peak area ratio of the remaining test compound with internal standard versus time.
The intrinsic clearance (CLint) was determined from the first order elimination constant k (min^−1) (obtained from GraphPad by plotting the natural logarithm of the peak area ratio of the remaining test item with internal standard versus time), using the actual volume of the incubation V (mL), the amount of hepatocytes in the incubation M (million cells) and the hepatocellularity number per g liver Hn (120 for human).
Values for CLint were expressed as mL/min/g liver.

[3] = system: Salmonella typhimurium (TA1535, TA1537, TA98 and TA100) and Escherichia coli WP2 uvrA (pKM101); test: Ames testing (bacterial mutagenicity, with and without S9-mix); conditions: 5 to 5000 ug/plate, absence and presence of S9-mix

Cc1ccc(Oc2ncc(N3C(=O)NC(C)(C)C3=O)cn2)c2c1OCC21CC1 [RE5, reference compound]
fraction unbound at 5 h, 5 micromolar [1]: 0.051 | In vitro CLint [2]: 0.31 mL/min/g liver | Rate constant k [2]: 0.002 min⁻¹ | Ames Result (compound) [3]: Non- mutagenic

CC[C@H]1NC(=O)N(c2ccc(Oc3cccc4c3C3(CC3)CO4)nc2)C1=O [RE13, (5R)-5-ethyl-3-(6-spiro[2H-benzofuran-3,1′-cyclopropane]-4-yloxy-3-pyridyl)imidazolidine-2,4-dione, reference compound]
fraction unbound at 5 h, 5 micromolar [1]: 0.062 | In vitro CLint [2]: 2.16 mL/min/g liver | Rate constant k [2]: 0.009 min⁻¹

CC[C@H]1NC(=O)N(c2cnc(Oc3cccc4c3C3(CC3)CO4)cn2)C1=O [Example 10, (5R)-5-ethyl-3-(5-spiro[2H-benzofuran-3,1′-cyclopropane]-4-yloxypyrazin-2-yl)imidazolidine-2,4-dione]
fraction unbound at 5 h, 5 micromolar [1]: 0.087 | In vitro CLint [2]: 0.70 mL/min/g liver | Rate constant k [2]: 0.003 min⁻¹ | clearance in human hepatocytes (in words) [2]: low clearance | Ames Result (compound) [3]: Non- mutagenic

CC[C@H]1NC(=O)N(c2ccc(Oc3ccc(C)c4c3C3(CC3)CO4)nc2)C1=O [RE11, reference compound]
fraction unbound at 5 h, 5 micromolar [1]: 0.021 | In vitro CLint [2]: 3.58 mL/min/g liver | Rate constant k [2]: 0.02 min⁻¹ | Ames Result (compound) [3]: Non- mutagenic

CC[C@H]1NC(=O)N(c2cnc(Oc3ccc(C)c4c3C3(CC3)CO4)cn2)C1=O [Example 9, (5R)-5-ethyl-3-[5-(7-methylspiro[2H-benzofuran-3,1′-cyclopropane]-4-yl)oxypyrazin-2-yl]imidazolidine-2,4-dione]
fraction unbound at 5 h, 5 micromolar [1]: 0.03 | In vitro CLint [2]: 1.03 mL/min/g liver | Rate constant k [2]: 0.004 min⁻¹ | clearance in human hepatocytes (in words) [2]: low clearance | Ames Result (compound) [3]: Non- mutagenic
